melting point [°C]	Structure (SMILES)
42	CCCCCCCc1cnc(-c2ccc(CCC(=O)OCC(F)(F)C(F)F)cc2)nc1
142 to 145	Cc1ccc(-c2c(NS(=O)(=O)c3ccc(C(C)(C)C)cc3)ncnc2OCCOc2ccc(N(C)C)cc2)cc1
168 to 170	COc1cc(C=C2OC(C)=CC2=O)ccc1O
176 to 178	Cc1ccccc1C(=O)Nc1ccc(C(=O)N2Cc3cccn3Cc3ccccc32)cc1Cl
106 to 107	CC(C(=O)O)c1ccc(C=C2CCCC2=O)cc1 (centres undefined)
192 to 198	CC1(C)OC(=O)Nc2ccc(-c3cccc(C#N)c3F)cc21
114 to 116	Cc1cc(C#CC(C)(C)O)cc(C)c1Oc1ccc([N+](=O)[O-])c(Nc2ccc(C#N)cc2)n1
185 to 187	COc1ccc(S(=O)(=O)C(C)(Cc2ccc3ccccc3c2)C(=O)NO)cc1 (centres undefined)
62.5 to 63	Nc1c(Cl)cc(C(O)CNCCC#CCOCCc2ccccc2)cc1Cl (centres undefined)
127	COC(=O)CCc1cc2nc(Cl)ccc2n1S(=O)(=O)c1cc(OC)ccc1OC
86.4 to 87.4	CCCCOCCOc1ccc(-c2ccc(N(C)CCOC)c(C=CC(=O)O)c2)cc1
200	COc1ccc2c(c1)C=C(c1ccc3c(c1)NC(=O)CO3)C(c1ccccc1)O2 (centres undefined)
243 to 244	CC(C)(C)c1ccc(-c2[nH]c3cccc4c3c2CCNC4=O)cc1
58	O=C(O)COc1nnc(C(F)(F)F)s1
153 to 156	Cc1cc(C)nc(COCP(=O)(O)O)c1
254 to 255	CNS(=O)(=O)c1cnc2c(OC)c(OC)c(OC)cc2c1O
192 to 194	COc1cc2c(cc1OC)C1=C(C#N)SCCC(=O)N1CC2
209	CC(=O)N[C@H]1C[C@@H](c2cc(NC(=O)Cc3cccc4ccccc34)n[nH]2)C1
174 to 175	O=C1c2ccc(Br)cc2C(=O)N1c1ccc(Cl)cc1C(F)(F)F
99 to 101	C/C(Cl)=C/CC(C)(C(=O)O)C(=O)O
99 to 109	CN(CCC12CC3CC(CC(C3)C1)C2)C(=O)NCCCc1ccncc1
66 to 68	CC(=NOCCO)c1ccc(-c2ccccc2)cn1
167 to 168	CC(=O)Oc1ccc(S(=O)(=O)ON=C2c3ccccc3-c3ccccc32)cc1

melting point [°C]	Structure (SMILES)
92 to 94	COc1ccccc1-c1ccn(C(C)C(=O)N(C)C)n1 (centres undefined)
219 to 221	CC(C)c1cccc(C(C)C)c1NC(=O)NC(Cc1ccccc1)c1ccccc1 (centres undefined)
160 to 180	COc1cc2nc(CSc3ncnc4[nH]cnc34)n(-c3ccccc3Cl)c(=O)c2cc1OC
104 to 105	COc1ccc(C2=C(C=O)CCc3cc(OC)ccc32)cc1
273 to 276	Nc1c(F)c(N2CCC(=NO)C2)c(F)c2c1c(=O)c(C(=O)O)cn2C1CC1
72 to 74	CCOC(=O)C(C)Oc1cc(-n2c(=O)cc(C(F)(F)F)n(C)c2=O)c(F)cc1Cl (centres undefined)
81 to 84	CC(C)(C)CC(=Cc1ccc(Cl)cc1)Cn1cncn1
225 to 227	Cn1cc(-c2cccc(N3Cc4cc(C(C)(C)C)ccc4C3=O)c2CO)nc(Nc2ccc(N3CCOCC3)cc2)c1=O
45.8 to 52.8	CCc1nn2c(-c3ccc(OC)cc3Cl)cccc2c1N(CCF)CCOC
168 to 169	CCCCOc1c(CNC(=O)OC(C)(C)C)n(CC(C)(C)C)c(=O)c2ccc(F)cc12
145 to 150	Nc1nc2c(s1)CCN(CC=Cc1ccc(Cl)cc1)CC2
80 to 82	COc1cc(OC)cc(N2CCN(C(=O)N(C)c3nc(C)c(C)nc3OC)CC2)c1
134 to 135	COc1cccc(C(O)(Cc2ccncc2)c2cccc(OC)c2)c1
74 to 75	CCOC(=O)c1ccc(Sc2cc3c(cc2C)C(C)(C)CCC3(C)C)cc1O
228 to 230	C[C@@H]1S[C@@H](C(=O)Nc2ccc(CN3C(=O)CN(C)C3=O)cc2)Cc2cc3c(cc2C1=O)OCO3
230 to 232	O=[N+]([O-])c1ccc2[nH]cc(Cn3ccnc3)c2c1
156 to 157	COCOc1ccc(OC)c(-c2ccc(C[C@H](NC(=O)c3c(Cl)cccc3Cl)C(=O)O)cc2)c1OC
206 to 208	CCCCNC(=O)Nc1ccc(OC)cc1C(=O)NCC1CCN(C(c2ccccc2)c2ccccc2)CC1
264 to 265	O=C1NN=C(c2ccc(NC(=O)C3CC3(Cl)Cl)cc2)C2CC12 (centres undefined)
143	CSCCC(NC(=O)Nc1cccc(C)c1)C(=O)O (racemic)
139	CCON=C(CC)C1=C(OC(=O)c2ccccc2)CC(c2c(OC)cc(OC)cc2OC)CC1=O (centres undefined)
276 to 278	NC(=O)c1ccc(C(=O)O)c(N)c1
131 to 132	COc1cc2ncnc(N3CCN(C(=S)NCc4ccc(OC(F)(F)F)cc4)CC3)c2cc1OC

melting point [°C]	Structure (SMILES)
101 to 102	CC1CC(Nc2nnc(-c3cccc(Oc4cccc(C(F)(F)F)c4)c3)s2)CC(C)(C)C1 (centres undefined)
73 to 75	C#CCCCCCCCCC(=O)N[C@H]1CCCNC(=O)C1
136 to 138	Cc1oc(-c2ccccc2)nc1COc1ccc(OC(C)(C)C(=O)O)cc1
284 to 287	Nc1ncc(Cc2ccc3c(c2)CCCN3)c(N)n1
110 to 111	CC(=O)c1cc(Cl)c(OCCOc2ccc3ccccc3c2)c(Cl)c1
226	c1cn(Cc2ccc3[nH]c(-n4ccnc4)nc3c2)cn1
130 to 131	COc1ccc(-c2ccccc2NC(=N)N(C)C)cc1
226	OCc1cccc2c(-c3ccc(Br)cc3)nccc12
202 to 204	NCC1CCn2c(c(C3=C(c4cccc(C(F)(F)F)c4)C(=O)NC3=O)c3ccccc32)C1 (centres undefined)
237 to 239	Cc1sc2c(Sc3ccccc3)c3ccccc3c(-c3cc(Br)c(O[C@H](C)C(=O)O)c(Br)c3)c2c1C
90 to 92	CC1(C)N=C(c2ccccc2)CC1c1ccncc1 (centres undefined)
104 to 106	COc1cccc(C2(c3cccc(OC)c3)CC2C=CC(=O)NC(C)CCCc2cccnc2)c1 (single isomer, unassigned)
140	O=C(Nc1ccccn1)c1c(O)ccc2cc(-c3cccc(O)c3)ccc12
189 to 191	CC1(C)CC(OC(=O)N=NC(=O)OC2CC(C)(C)N(OC3CCCCC3)C(C)(C)C2)CC(C)(C)N1OC1CCCCC1
260 to 263	COc1cc2nc(-c3cccs3)cc(C(=O)O)c2cc1OC
155 to 157	Cc1ccc(-n2c(N)nc3ccccc32)cc1-c1ccco1
115 to 116	CSc1c[nH]c2ncccc12
120 to 121	CCOP(=O)(OCC)C(C)(C)NC(=O)c1cccc(NC(=O)c2cccc([N+](=O)[O-])c2)c1
159 to 160	CS(=O)(=O)C(S(C)(=O)=O)S(=O)(=O)Oc1ccccc1
> 260	Cc1[nH]c(=O)c(-c2csc(-c3ccnc(NCC4CC4)c3)n2)cc1C(=O)NCC1CC1
188 to 192	CNC(=O)C(Cc1ccc(OC)cc1)NC(=O)C(CC(C)C)C(CC(=O)NCC(=O)O)SC(C)=O (centres undefined)
161 to 163	COc1cc2c(cc1OC)C(C(CO)CO)N(C(=O)c1ccccc1)CC2 (centres undefined)
116 to 117	Cc1cc(C)c(C(C)(CO)c2ccc(C(C)C)cc2)c(O)c1C (centres undefined)

melting point [°C]	Structure (SMILES)
71 to 72	Cn1ccnc1N=Cc1ccccc1
235 to 242	Cc1cccc(C)c1N1CCN(CCNc2cnn(C)c(=O)c2Cl)CC1
160 to 161	CC(=O)N1CCN=C1Nc1cc(C)nn1-c1ccccc1C
157 to 162	NS(=O)(=O)c1nccn1-c1nccs1
121 to 123	CCOC(=O)c1c(O)c2cccnc2n(CCc2ccccc2)c1=O
115 to 117	O=C(Nc1ccc(Oc2ccnc(NC3(CO)CCCC3)n2)c2ccccc12)c1cc(F)cc(N2CCOCC2)c1
110	CCCc1nc2ccnn2c(OC)c1Cc1ccc(-c2ccccc2C#N)cc1
136	Cn1nc(C(F)(F)F)cc1Oc1cccc(C(=O)NCC(F)(F)F)n1
185	CCC1(CC)O[C@@H](C(=O)O)[C@H](c2ccccc2)N1C(=O)OC(C)(C)C
215 to 217	COc1ccc(C(=O)NC(N)=NC(=O)Cn2c(Cl)ccc2Cl)cc1
110 to 111	O=CN1CCN(c2ccc3cc(F)ccc3n2)CC1
50 to 52	c1cc(C2=NCCS2)nc(C2OCCO2)c1
105 to 107	CC(C)OC(=O)Nc1ccsc1
154 to 155	Clc1ccc(Oc2cncc3sc(C4=NCCN4)cc23)cc1
210	O=C1O[C@@H](Cn2ccnn2)CN1c1ccc(-c2ccc(C3=NOC(CS(=O)(=O)CCO)C3)nc2)c(F)c1 (some centres undefined)
70 to 71	CN(CCCN1C(=O)CSC1c1cc(C(C)(C)C)c(O)c(C(C)(C)C)c1)CCOc1ccc2c(c1)OCO2 (centres undefined)
59 to 61	COc1cc(N)c2c(c1)OC(C)C2 (centres undefined)
129 to 131	COC(=O)CC[C@H](NC(=O)c1c[nH]c(CCC2CNc3nc(NC(=O)C(C)(C)C)nc(O)c3C2)n1)C(=O)OC (some centres undefined)
176 to 177	O=C(Nc1ccc(CCl)cc1)C1=Cc2cc(-c3ccccc3)ccc2CC1
88 to 100	CCN(CC)CCCNc1ncc2cc(-c3c(Cl)cccc3Cl)c(NC(=O)NC(C)C)nc2n1
119 to 122	CCCc1c(OCCCSc2ccc(CC(=O)O)c(Cl)c2Cl)ccc(C(C)=O)c1O
122 to 124	N#CCCNCCCC(=O)O
102	O=C(O)CCC1COc2ccccc2O1 (centres undefined)

Structure (SMILES)	melting point [°C]
BrC(Br)c1nccnc1C(Br)Br	167 to 170
O=C1CN2CCOC2(c2ccccc2F)c2cc(Cl)ccc2N1CCO (centres undefined)	141 to 146
CCCCCCCCCCNC(=O)CCCCC(=O)OO	77 to 85
Cc1c(F)c(N2CCNCC2)c(F)c2c1c(=O)c(C(=O)O)cn2C1CC1	205 to 206
CN1C2CCC1CN(c1ccc3cc([N+](=O)[O-])ccc3n1)C2	152 to 154
Cc1ncc2n1-c1ccc(Cl)cc1C(c1ccccc1F)N=C2 (centres undefined)	180 to 181
CN1CC(C)(C)Oc2c(C(=O)NC3CN4CCC3CC4)cccc21 (centres undefined)	114 to 116

From a melting point compilation (Tetko et al.; mined from patent text by program, amines drawn as free bases though some values may be those of a salt)
